This is an account of results in ChEMBL document CHEMBL5291721, “A preclinical secondary pharmacology resource illuminates target-adverse drug reaction associations of marketed drugs” (Nat Commun, 2023).

A value given as a limit tells only on which side of the number the result lay.

One test has as its target T1, Estrogen receptor (Homo sapiens, UniProt P03372).
T1 sequence (P03372 whole entry): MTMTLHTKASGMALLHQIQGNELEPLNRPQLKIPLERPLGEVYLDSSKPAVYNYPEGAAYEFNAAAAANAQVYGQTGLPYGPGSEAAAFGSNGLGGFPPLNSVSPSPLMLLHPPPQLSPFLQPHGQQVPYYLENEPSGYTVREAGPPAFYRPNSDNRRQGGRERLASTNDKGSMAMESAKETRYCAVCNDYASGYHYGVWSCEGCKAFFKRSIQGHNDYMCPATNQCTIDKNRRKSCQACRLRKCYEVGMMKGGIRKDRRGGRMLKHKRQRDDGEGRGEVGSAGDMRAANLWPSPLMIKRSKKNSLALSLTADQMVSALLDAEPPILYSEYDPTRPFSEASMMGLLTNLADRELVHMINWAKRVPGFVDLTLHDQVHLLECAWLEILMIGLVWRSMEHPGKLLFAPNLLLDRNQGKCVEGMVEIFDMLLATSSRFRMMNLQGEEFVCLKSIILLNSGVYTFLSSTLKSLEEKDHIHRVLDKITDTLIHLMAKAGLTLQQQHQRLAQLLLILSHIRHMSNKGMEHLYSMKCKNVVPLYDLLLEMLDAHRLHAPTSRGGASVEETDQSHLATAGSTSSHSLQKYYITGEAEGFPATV

For test [1], the target named is T2, Alpha-1A adrenergic receptor (Homo sapiens, UniProt P35348).
T2 sequence (P35348 whole entry): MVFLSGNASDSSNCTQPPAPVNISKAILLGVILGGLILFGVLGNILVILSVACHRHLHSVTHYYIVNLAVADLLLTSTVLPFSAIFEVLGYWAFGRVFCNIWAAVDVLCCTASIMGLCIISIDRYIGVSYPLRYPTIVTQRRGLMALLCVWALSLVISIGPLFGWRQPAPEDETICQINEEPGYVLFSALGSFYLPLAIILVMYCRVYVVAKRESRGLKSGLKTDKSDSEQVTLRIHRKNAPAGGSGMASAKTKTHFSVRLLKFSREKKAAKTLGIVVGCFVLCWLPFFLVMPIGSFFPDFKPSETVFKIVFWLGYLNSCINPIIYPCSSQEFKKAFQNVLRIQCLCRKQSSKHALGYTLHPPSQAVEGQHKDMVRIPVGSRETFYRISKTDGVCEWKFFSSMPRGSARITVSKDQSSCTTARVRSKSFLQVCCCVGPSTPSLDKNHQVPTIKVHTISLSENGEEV
Type of test: functional, cell-based.

Another test concerns the target T3, Adenosine receptor A3 (Homo sapiens, UniProt P0DMS8).
T3 sequence (P0DMS8 whole entry): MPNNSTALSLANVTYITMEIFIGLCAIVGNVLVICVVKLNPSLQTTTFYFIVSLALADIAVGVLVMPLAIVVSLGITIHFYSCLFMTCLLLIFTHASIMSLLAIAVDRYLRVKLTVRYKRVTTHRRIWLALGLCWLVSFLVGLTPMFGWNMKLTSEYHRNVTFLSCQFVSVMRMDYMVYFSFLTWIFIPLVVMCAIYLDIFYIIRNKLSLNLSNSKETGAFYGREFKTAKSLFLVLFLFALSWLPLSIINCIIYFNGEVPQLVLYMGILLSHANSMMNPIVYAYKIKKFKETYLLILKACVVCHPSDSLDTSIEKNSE

In test [2] the target is T4, 5-hydroxytryptamine receptor 2B (Homo sapiens, UniProt P41595). Type of test: functional, cell-based.
T4 sequence (P41595 whole entry): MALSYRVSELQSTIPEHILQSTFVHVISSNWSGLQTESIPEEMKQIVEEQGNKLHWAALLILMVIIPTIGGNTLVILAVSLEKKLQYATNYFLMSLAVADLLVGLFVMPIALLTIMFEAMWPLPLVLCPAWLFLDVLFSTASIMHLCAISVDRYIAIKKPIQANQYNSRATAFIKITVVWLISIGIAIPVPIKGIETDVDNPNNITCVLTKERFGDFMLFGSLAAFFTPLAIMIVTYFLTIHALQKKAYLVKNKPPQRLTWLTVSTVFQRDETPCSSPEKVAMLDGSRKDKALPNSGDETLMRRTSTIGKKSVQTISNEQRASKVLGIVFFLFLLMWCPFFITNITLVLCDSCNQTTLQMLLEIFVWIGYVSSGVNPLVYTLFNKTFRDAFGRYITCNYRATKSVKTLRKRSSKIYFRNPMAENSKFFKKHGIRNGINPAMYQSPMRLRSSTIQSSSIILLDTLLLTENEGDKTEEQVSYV
In test [3] the target is T5, Equilibrative nucleoside transporter 1 (Homo sapiens, UniProt Q99808).
T5 sequence (Q99808 whole entry): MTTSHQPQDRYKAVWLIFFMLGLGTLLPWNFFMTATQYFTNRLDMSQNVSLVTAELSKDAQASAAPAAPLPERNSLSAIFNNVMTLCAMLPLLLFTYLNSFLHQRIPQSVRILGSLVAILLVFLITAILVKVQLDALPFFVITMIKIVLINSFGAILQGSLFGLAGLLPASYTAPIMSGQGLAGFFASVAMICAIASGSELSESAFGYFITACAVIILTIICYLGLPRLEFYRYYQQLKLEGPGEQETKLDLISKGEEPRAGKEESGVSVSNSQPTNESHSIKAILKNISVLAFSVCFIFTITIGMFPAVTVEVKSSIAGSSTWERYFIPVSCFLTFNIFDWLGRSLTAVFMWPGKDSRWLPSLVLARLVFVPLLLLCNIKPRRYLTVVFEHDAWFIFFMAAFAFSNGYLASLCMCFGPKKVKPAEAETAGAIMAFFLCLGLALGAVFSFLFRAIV

The target in another test is T6, B2 bradykinin receptor (Homo sapiens, UniProt P30411).
T6 sequence (P30411 whole entry): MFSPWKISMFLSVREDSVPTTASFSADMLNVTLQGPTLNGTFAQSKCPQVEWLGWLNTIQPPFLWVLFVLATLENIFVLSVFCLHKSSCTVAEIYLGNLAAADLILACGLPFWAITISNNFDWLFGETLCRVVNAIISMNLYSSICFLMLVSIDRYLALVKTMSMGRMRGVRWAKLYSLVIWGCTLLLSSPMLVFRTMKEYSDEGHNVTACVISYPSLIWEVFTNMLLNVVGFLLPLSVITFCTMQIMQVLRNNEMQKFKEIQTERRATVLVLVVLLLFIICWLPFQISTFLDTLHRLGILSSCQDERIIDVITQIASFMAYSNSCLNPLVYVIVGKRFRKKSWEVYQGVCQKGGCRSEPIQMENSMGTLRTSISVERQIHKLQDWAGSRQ

For test [4], the target named is T4, 5-hydroxytryptamine receptor 2B.
Also: assay procedure not described here.

In the case of `COc1c2ccoc2cc2oc(=O)ccc12` [BERGAPTEN], the AC50 was greater than 30 µM at Estrogen receptor, greater than 30 µM in test [1] and 23.8 µM at Adenosine receptor A3.

On to `OC[C@H]1O[C@@H](c2ccc(Cl)c(Cc3ccc(O[C@H]4CCOC4)cc3)c2)[C@H](O)[C@@H](O)[C@@H]1O` [EMPAGLIFLOZIN], for which the AC50 (at Estrogen receptor; in test [1]; on Adenosine receptor A3) was greater than 30 µM throughout.

`CNC(=O)Oc1cccc2ccccc12` [CARBARIL]: the AC50 (at Estrogen receptor; in test [1]; on Adenosine receptor A3) was greater than 30 µM throughout.

Consider `N#Cc1ccc2c(c1)N(CCCN1CCC(O)CC1)c1ccccc1S2` [PERICIAZINE], for which the AC50 on Estrogen receptor and on Adenosine receptor A3 was greater than 30 µM throughout.

For `COc1cc2nccc(Oc3ccc(NC(=O)C4(C(=O)Nc5ccc(F)cc5)CC4)cc3)c2cc1OC` [CABOZANTINIB], the AC50 in test [2] is 5.8 µM; at Estrogen receptor it was greater than 30 µM; in test [1] it was 9.03 µM; on Adenosine receptor A3, 0.379 µM; in test [3], greater than 30 µM.

Take `N[C@@H](CC(=O)N1CCn2c(nnc2C(F)(F)F)C1)Cc1cc(F)c(F)cc1F` [SITAGLIPTIN]: the concentration at half-maximal activity (AC50) in test [2] was greater than 30 µM; at B2 bradykinin receptor, greater than 10 µM; in test [4], greater than 10 µM; in test [3] it was greater than 30 µM.

As for `Nc1ccc(C(=O)Oc2ccccc2)c(O)c1` [PHENYL AMINOSALICYLATE], the AC50 on Estrogen receptor is greater than 30 µM; in test [1], 23 µM; on Adenosine receptor A3, 18.4 µM.

On to `FC(F)(F)c1ccc(CNc2ccc(Cc3c[nH]c4ncc(Cl)cc34)cn2)cn1` [PEXIDARTINIB], for which the figures for the AC50 (at Estrogen receptor; in test [1]; at Adenosine receptor A3) were greater than 30 µM, 1.8 µM and 3.69 µM, respectively.

Take `Cc1onc(-c2ccccc2)c1C(=O)N[C@@H]1C(=O)N2[C@@H]1SC(C)(C)[C@@H]2C(=O)O` [OXACILLIN]: the AC50 (on Estrogen receptor; in test [1]; on Adenosine receptor A3) was greater than 30 µM throughout.

With `O=C(O)c1cc(/N=N/c2ccc(O)c(C(=O)O)c2)ccc1O` [OLSALAZINE], the AC50 (at Estrogen receptor; in test [1]; on Adenosine receptor A3) was greater than 30 µM throughout.

In the case of `CC[C@H](C)C[C@H](C)CCCCCCCCC(=O)N[C@H]1C[C@@H](O)[C@@H](NCCN)NC(=O)[C@@H]2[C@@H](O)CCN2C(=O)[C@H]([C@H](O)CCN)NC(=O)[C@H]([C@H](O)[C@@H](O)c2ccc(O)cc2)NC(=O)[C@@H]2C[C@@H](O)CN2C(=O)[C@H]([C@@H](C)O)NC1=O` [CASPOFUNGIN], the AC50 worked out at 23.1 µM at Estrogen receptor, 13 µM in test [1] and 11.3 µM at Adenosine receptor A3.

As for `CN1CCC(=C2c3ccccc3Sc3ccccc32)CC1` [PIMETHIXENE], the results for the AC50 (on Estrogen receptor; in test [1]; on Adenosine receptor A3) were greater than 30 µM, 0.121 µM and 25.9 µM, respectively.

As to `CC(C)C[C@H](NC(=O)CNC(=O)c1cc(Cl)ccc1Cl)B(O)O` [IXAZOMIB], the AC50 (at Estrogen receptor; in test [1]; at Adenosine receptor A3) was greater than 30 µM each time.

On to `[H]/N=C(\N/C(=N/[H])Nc1ccc(Cl)cc1)NC(C)C` [PROGUANIL], for which the AC50 (on Estrogen receptor; in test [1]; on Adenosine receptor A3) was greater than 30 µM in each case.

As to `CC(C)OC(=O)CCC/C=C\C[C@@H]1[C@@H](/C=C/C(F)(F)COc2ccccc2)[C@H](O)C[C@@H]1O` [TAFLUPROST], the AC50 (on Estrogen receptor; in test [1]; on Adenosine receptor A3) was greater than 30 µM each time.

As to `OC[C@H]1O[C@@H](c2ccc(F)c(Cc3cc4ccccc4s3)c2)[C@H](O)[C@@H](O)[C@@H]1O` [IPRAGLIFLOZIN], the values for the AC50 (at Estrogen receptor; in test [1]; at Adenosine receptor A3) were greater than 30 µM, 22.2 µM and greater than 30 µM, respectively.

For `CC(CN1CC(=O)NC(=O)C1)N1CC(=O)NC(=O)C1` (stereo not drawn) [RAZOXANE], the AC50 (on Estrogen receptor; in test [1]; at Adenosine receptor A3) was greater than 30 µM in each case.

`CCc1nc(C(N)=O)c(Nc2ccc(N3CCC(N4CCN(C)CC4)CC3)c(OC)c2)nc1NC1CCOCC1` [GILTERITINIB]: the AC50 on Estrogen receptor is greater than 30 µM; in test [1], greater than 0.3 µM.

Take `CC(=O)O[C@]1(C(C)=O)CC[C@H]2[C@@H]3C=C(C)C4=CC(=O)CC[C@@H]4[C@H]3CC[C@@]21C` [NOMEGESTROL ACETATE]: the AC50 is greater than 30 µM in test [2], greater than 30 µM at Estrogen receptor, greater than 10 µM in test [1] and greater than 30 µM in test [3].

Regarding `C/C=C/C/C=C/CCC(=O)[C@H]1O[C@H]1C(N)=O` [CERULENIN], the AC50 (on Estrogen receptor; in test [1]; at Adenosine receptor A3) was greater than 30 µM in each case.

As for `CC(C)(O)CNc1nc(Nc2ccnc(C(F)(F)F)c2)nc(-c2cccc(C(F)(F)F)n2)n1` [ENASIDENIB], the AC50 on Estrogen receptor was greater than 30 µM; in test [1], 20.3 µM; on Adenosine receptor A3 it was 0.003 µM.

Regarding `CC[C@H](c1ccc(O)cc1)[C@@H](CC)c1ccc(O)cc1` [HEXESTROL], the AC50 at Estrogen receptor is 0.0252 µM; in test [1], greater than 3 µM; on Adenosine receptor A3 it was 8.47 µM.

`O=C(O)COc1ccc(C(=O)c2cccs2)c(Cl)c1Cl`: the AC50 (on Estrogen receptor; in test [1]; on Adenosine receptor A3) was greater than 30 µM each time.

As for `CC[C@H]1OC(=O)[C@H](C)C(=O)[C@H](C)[C@@H](O[C@@H]2O[C@H](C)C[C@H](N(C)C)[C@H]2O)[C@](C)(OC)C[C@@H](C)C(=O)[C@H](C)[C@H]2N(CCCCn3cnc(-c4cccnc4)c3)C(=O)O[C@]12C` [TELITHROMYCIN], the AC50 (on Estrogen receptor; in test [1]; on Adenosine receptor A3) was greater than 30 µM each time.

`Cc1ccccc1C(=O)Nc1ccc(C(=O)N2CCCC(N(C)C)c3ccccc32)cc1` (stereo not drawn) [MOZAVAPTAN]: the results for the AC50 (at Estrogen receptor; in test [1]; on Adenosine receptor A3) were greater than 30 µM, 18.8 µM and greater than 30 µM, respectively.

As to `C[C@]1(Cn2ccnn2)[C@H](C(=O)O)N2C(=O)C[C@H]2S1(=O)=O` [TAZOBACTAM], the AC50 (on Estrogen receptor; in test [1]; at Adenosine receptor A3) was greater than 30 µM in each case.

`CN1CCCCC1CCN1c2ccccc2Sc2ccc([S+](C)[O-])cc21` (stereo not drawn) [MESORIDAZINE]: the AC50 at Estrogen receptor is greater than 10 µM; in test [1], 0.0171 µM; on Adenosine receptor A3, greater than 30 µM.

As to `C=C[C@H]1C[N@@]2CC[C@H]1C[C@@H]2[C@@H](O)c1ccnc2ccc(OC)cc12` [QUINIDINE], the AC50 was greater than 30 µM at B2 bradykinin receptor, 2 µM in test [4] and greater than 30 µM in test [3].

For the molecule `CC(CCc1ccccc1)NCC(O)c1ccc(O)c(C(N)=O)c1` (stereo not drawn) [LABETALOL], the AC50 at Estrogen receptor and at Adenosine receptor A3 was greater than 30 µM throughout.

In general, AC50 refers to the concentration at which the activity in the assay is half-maximal. A lower AC50 goes with greater potency.
